How the values were obtained:
[1] = tested on: HL-60; experiment: Induction of apoptosis in human HL-60 cells assessed as necrotic cells at 1 uM incubated for 48 hrs by annexin V-FITC/PI satining based flow cytometry (reference value: 0.00 %); type: functional
[2] = Cytotoxicity against human Kasumi 1 cells assessed as CD34positive CD38negative leukemic stem cell-like cells sub-population at 0.5 uM incubated for 24 hrs by APC/FITC satining based flow cytometry (reference value: 96.8 %); type: functional
[3] = tested on: HL-60; experiment: Induction of apoptosis in human HL-60 cells assessed as viable cells at 2 uM incubated for 48 hrs by annexin V-FITC/PI satining based flow cytometry (reference value: 97.4 %); type: functional; conditions: read-out: Activity
[4] = tested on: U-937; experiment: Induction of apoptosis in human U-937 cells assessed as late apoptotic cells at 0.5 uM incubated for 48 hrs by annexin V-FITC/PI satining based flow cytometry (reference value: 7.10 %); type: functional
[5] = MRT in Sprague-Dawley rat at 25 mg/kg, po measured upto 8 hrs by LC/MS-MS analysis; type: ADME, organism-based; conditions: in vivo
[6] = Tmax in Sprague-Dawley rat at 25 mg/kg, po measured upto 8 hrs by LC/MS-MS analysis; type: ADME, organism-based; conditions: in vivo
[7] = tested on: U-937; experiment: Induction of apoptosis in human U-937 cells assessed as early apoptotic cells at 2 uM incubated for 48 hrs by annexin V-FITC/PI satining based flow cytometry (reference value: 0.945 %); type: functional
[8] = tested on: U-937; experiment: Induction of differentiation in human U-937 cells assessed as increase in CD11b positive cells at 2 uM incubated for 48 hrs by FITC staining based flow cytometry (reference value: 2.72 %); type: functional
[9] = tested on: U-937; experiment: Induction of apoptosis in human U-937 cells assessed as necrotic cells at 0.2 uM incubated for 48 hrs by annexin V-FITC/PI satining based flow cytometry (reference value: 1.96 %); type: functional
[10] = target: Cyclin-dependent kinase 9 (Homo sapiens, UniProt P50750); experiment: Inhibition of CDK9 (unknown origin) preincubated for 20 mins followed by [gamma-33P]ATP addition measured after 120 mins in presence of ATP by Hot-SpotSM kinase assay
[11] = target: Histone deacetylase 7 (Homo sapiens, UniProt Q8WUI4); experiment: Inhibition of recombinant human HDAC7 using HDAC substrate incubated for 30 mins by fluorescence based assay
[12] = target: CDK6/cyclin D3 (Homo sapiens) (UniProt P30281+Q00534); experiment: Inhibition of CDK6/cyclinD3 (unknown origin) at 100 nM preincubated for 20 mins followed by [gamma-33P]ATP addition measured after 120 mins in presence of ATP by Hot-SpotSM kinase assay relative to control; type: protein-complex assay; conditions: time 140.0 min
[13] = tested on: U-937; experiment: Induction of apoptosis in human U-937 cells assessed as early apoptotic cells at 0.2 uM incubated for 48 hrs by annexin V-FITC/PI satining based flow cytometry (reference value: 0.945 %); type: functional
[14] = Cytotoxicity against human Kasumi 1 cells assessed as CD34positive CD38negative leukemic stem cell-like cells sub-population at 2 uM incubated for 24 hrs by APC/FITC satining based flow cytometry (reference value: 96.8 %); type: functional
[15] = target: Histone deacetylase 4 (Homo sapiens, UniProt P56524); experiment: Inhibition of recombinant human HDAC4 using HDAC substrate incubated for 30 mins by fluorescence based assay
[16] = tested on: U-937; experiment: Induction of apoptosis in human U-937 cells assessed as viable cells at 0.2 uM incubated for 48 hrs by annexin V-FITC/PI satining based flow cytometry (reference value: 90.0 %); type: functional; conditions: read-out: Activity
[17] = target: CDK6/cyclin D1 (Homo sapiens) (UniProt P24385+Q00534); experiment: Inhibition of CDK6/cyclinD1 (unknown origin) at 100 nM preincubated for 20 mins followed by [gamma-33P]ATP addition measured after 120 mins in presence of ATP by Hot-SpotSM kinase assay relative to control; type: protein-complex assay; conditions: time 140.0 min
[18] = tested on: HL-60; experiment: Induction of apoptosis in human HL-60 cells assessed as late apoptotic cells at 2 uM incubated for 48 hrs by annexin V-FITC/PI satining based flow cytometry (reference value: 1.33 %); type: functional
[19] = tested on: HL-60; experiment: Induction of apoptosis in human HL-60 cells assessed as early apoptotic cells at 2 uM incubated for 48 hrs by annexin V-FITC/PI satining based flow cytometry (reference value: 1.24 %); type: functional
[20] = target: CDK9/cyclin T1 (Homo sapiens) (UniProt O60563+P50750); experiment: Inhibition of CDK9/cyclinT1 (unknown origin) at 100 nM preincubated for 20 mins followed by [gamma-33P]ATP addition measured after 120 mins in presence of ATP by Hot-SpotSM kinase assay relative to control; type: protein-complex assay; conditions: time 140.0 min
[21] = tested on: HL-60; experiment: Downregulation of Pol-II S5 level in human HL-60 cells incubated for 6 hrs by Western blot analysis; type: functional, cell-based; conditions: dose <= 1000.0 nM
[22] = tested on: HL-60; experiment: Induction of differentiation in human HL-60 cells assessed as increase in CD11b positive cells at 1.5 uM incubated for 24 hrs by FITC staining based flow cytometry (reference value: 1.45 %); type: functional
[23] = tested on: HL-60; experiment: Induction of apoptosis in human HL-60 cells assessed as early apoptotic cells at 0.5 uM incubated for 48 hrs by annexin V-FITC/PI satining based flow cytometry (reference value: 1.24 %); type: functional
[24] = tested on: HL-60; experiment: Induction of apoptosis in human HL-60 cells assessed as early apoptotic cells at 1 uM incubated for 48 hrs by annexin V-FITC/PI satining based flow cytometry (reference value: 1.24 %); type: functional
[25] = tested on: U-937; experiment: Induction of apoptosis in human U-937 cells assessed as late apoptotic cells at 5 uM incubated for 48 hrs by annexin V-FITC/PI satining based flow cytometry (reference value: 4.23 %); type: functional
[26] = tested on: HL-60; experiment: Induction of apoptosis in human HL-60 cells assessed as viable cells at 1.2 uM incubated for 48 hrs by annexin V-FITC/PI satining based flow cytometry (reference value: 94.7 %); type: functional; conditions: read-out: Activity
[27] = tested on: U-937; experiment: Induction of differentiation in human U-937 cells assessed as increase in CD11b positive cells at 0.6 uM incubated for 48 hrs by FITC staining based flow cytometry (reference value: […] %); type: functional
[28] = tested on: Kasumi 1; experiment: Cytotoxicity against human Kasumi 1 cells assessed as CD34positive CD38negative leukemic stem cell-like cells sub-population at 0.5 uM incubated for 24 hrs by APC/FITC satining based flow cytometry (reference value: 95.8 %); type: functional
[29] = tested on: U-937; experiment: Induction of differentiation in human U-937 cells assessed as increase in CD11b positive cells at 1.2 uM incubated for 48 hrs by FITC staining based flow cytometry (reference value: […] %); type: functional
[30] = tested on: U-937; experiment: Induction of apoptosis in human U-937 cells assessed as viable cells at 5 uM incubated for 48 hrs by annexin V-FITC/PI satining based flow cytometry (reference value: 93.7 %); type: functional; conditions: read-out: Activity
[31] = tested on: U-937; experiment: Induction of apoptosis in human U-937 cells assessed as late apoptotic cells at 2.5 uM incubated for 48 hrs by annexin V-FITC/PI satining based flow cytometry (reference value: 4.23 %); type: functional
[32] = tested on: U-937; experiment: Induction of apoptosis in human U-937 cells assessed as viable cells at 1.2 uM incubated for 48 hrs by annexin V-FITC/PI satining based flow cytometry (reference value: 93.7 %); type: functional; conditions: read-out: Activity

Sequence of Cyclin-dependent kinase 9 (P50750 whole entry): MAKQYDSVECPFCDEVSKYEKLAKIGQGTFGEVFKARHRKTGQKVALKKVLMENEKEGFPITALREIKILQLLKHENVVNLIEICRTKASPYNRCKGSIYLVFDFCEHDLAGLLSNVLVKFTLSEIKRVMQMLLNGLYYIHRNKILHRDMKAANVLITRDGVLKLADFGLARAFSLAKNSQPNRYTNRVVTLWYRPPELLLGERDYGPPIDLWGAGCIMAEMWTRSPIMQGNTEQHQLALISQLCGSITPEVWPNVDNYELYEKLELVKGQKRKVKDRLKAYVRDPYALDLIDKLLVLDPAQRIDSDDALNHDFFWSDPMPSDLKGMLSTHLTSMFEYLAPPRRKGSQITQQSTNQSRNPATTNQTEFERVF
Sequence of Histone deacetylase 7 (Q8WUI4 whole entry): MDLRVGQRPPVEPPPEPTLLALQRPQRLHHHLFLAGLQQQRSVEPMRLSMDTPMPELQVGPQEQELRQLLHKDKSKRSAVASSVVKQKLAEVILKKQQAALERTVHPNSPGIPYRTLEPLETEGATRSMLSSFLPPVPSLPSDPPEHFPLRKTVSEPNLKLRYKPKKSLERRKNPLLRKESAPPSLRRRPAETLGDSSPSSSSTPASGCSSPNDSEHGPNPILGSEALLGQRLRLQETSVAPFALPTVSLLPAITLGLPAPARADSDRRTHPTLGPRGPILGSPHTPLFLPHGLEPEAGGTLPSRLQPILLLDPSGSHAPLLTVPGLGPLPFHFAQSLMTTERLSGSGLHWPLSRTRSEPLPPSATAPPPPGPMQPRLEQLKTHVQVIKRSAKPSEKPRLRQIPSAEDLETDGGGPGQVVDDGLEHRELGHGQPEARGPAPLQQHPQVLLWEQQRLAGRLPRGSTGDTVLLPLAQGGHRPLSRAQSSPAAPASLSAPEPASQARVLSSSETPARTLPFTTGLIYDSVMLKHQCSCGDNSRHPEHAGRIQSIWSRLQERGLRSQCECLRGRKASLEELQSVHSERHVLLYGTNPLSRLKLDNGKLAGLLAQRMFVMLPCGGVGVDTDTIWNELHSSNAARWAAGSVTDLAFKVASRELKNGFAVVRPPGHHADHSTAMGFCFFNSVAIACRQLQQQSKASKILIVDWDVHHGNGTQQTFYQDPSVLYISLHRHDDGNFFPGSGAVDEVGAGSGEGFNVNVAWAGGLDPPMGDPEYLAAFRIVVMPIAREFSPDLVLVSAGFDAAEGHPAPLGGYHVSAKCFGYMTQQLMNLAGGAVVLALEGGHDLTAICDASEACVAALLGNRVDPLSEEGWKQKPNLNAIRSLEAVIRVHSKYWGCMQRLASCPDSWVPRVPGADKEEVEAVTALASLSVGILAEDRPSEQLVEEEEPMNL
Sequence of Histone deacetylase 4 (P56524 whole entry): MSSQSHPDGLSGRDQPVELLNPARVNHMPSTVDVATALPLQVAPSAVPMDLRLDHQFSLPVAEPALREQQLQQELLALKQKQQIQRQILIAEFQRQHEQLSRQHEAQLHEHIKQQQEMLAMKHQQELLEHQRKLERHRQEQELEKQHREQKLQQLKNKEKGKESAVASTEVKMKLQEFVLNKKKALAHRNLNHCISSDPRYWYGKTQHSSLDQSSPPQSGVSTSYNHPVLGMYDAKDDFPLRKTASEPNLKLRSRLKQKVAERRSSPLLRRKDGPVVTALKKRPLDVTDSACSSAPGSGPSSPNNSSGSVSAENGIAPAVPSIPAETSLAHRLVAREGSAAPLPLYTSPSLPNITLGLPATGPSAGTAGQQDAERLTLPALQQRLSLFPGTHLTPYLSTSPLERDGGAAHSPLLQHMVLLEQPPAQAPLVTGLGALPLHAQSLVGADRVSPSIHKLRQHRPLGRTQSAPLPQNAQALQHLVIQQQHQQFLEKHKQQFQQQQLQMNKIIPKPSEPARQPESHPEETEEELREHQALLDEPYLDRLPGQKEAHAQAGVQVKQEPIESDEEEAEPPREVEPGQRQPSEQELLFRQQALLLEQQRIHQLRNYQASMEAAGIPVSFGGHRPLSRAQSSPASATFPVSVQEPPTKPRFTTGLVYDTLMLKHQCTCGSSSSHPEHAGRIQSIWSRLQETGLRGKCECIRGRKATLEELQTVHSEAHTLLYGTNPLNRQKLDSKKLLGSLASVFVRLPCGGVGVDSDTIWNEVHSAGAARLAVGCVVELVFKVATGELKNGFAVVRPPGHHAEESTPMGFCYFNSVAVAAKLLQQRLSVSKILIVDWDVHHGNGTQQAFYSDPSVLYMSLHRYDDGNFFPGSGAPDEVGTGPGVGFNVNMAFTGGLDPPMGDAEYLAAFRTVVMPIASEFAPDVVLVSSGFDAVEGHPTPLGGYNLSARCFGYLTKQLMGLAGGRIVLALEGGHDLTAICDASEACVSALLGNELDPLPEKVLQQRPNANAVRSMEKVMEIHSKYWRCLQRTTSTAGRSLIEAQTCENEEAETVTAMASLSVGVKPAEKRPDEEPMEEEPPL

Nc1ccccc1NC(=O)c1ccc(NC(=O)c2n[nH]cc2NC(=O)c2c(Cl)cccc2Cl)cc1
Activity [1]: 0.445%
Activity [2]: 45.4%
viability at 2 µM [3]: 5.25%
Activity [4]: 14%
MRT [5]: 1.27 h
Tmax [6]: 0.75 h
Activity [7]: 2.14%
Activity [8]: 18.5%
Activity [9]: 2.9%
IC50 [10]: < 0.1 µM
IC50 [11]: > 1 µM
inhibition [12]: 21.4%
Activity [13]: 1.56%
Activity [14]: 28.1%
IC50 [15]: > 1 µM
viability at 0.2 µM [16]: 87.4%
inhibition [17]: 58.2%
Activity [18]: 54.5%
Activity [19]: 35.4%
inhibition [20]: 98.3%
Activity [21]: Dose-Dependent Effect
Activity [22]: 50.9%
Activity [23]: 2.42%
Activity [24]: 17%

Nc1cc(F)ccc1NC(=O)c1ccc(CNC(=O)/C=C/c2cccnc2)cc1 [TUCIDINOSTAT]
Activity [25]: 22.7%
viability at 1.2 µM [26]: 84.7%
Activity [27]: 4.06%
Activity [28]: 93.9%
Activity [29]: 5%
viability at 5 µM [30]: 72.6%
Activity [31]: 9.77%
viability at 1.2 µM [32]: 90.3%
